ChEMBL document CHEMBL1201862, “PubChem BioAssay data set” (2004)
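Cells were grown in 96-well plates and exposed to each compound for 48 hours at five concentrations; endpoints were interpolated linearly between bracketing concentrations, or set to the highest concentration if not reached. The concentration for 50% growth inhibition is given as GI50.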 Calls of active or inactive are those of the source. Rule as the data show it: active = GI50 up to about 1.1 µM and inactive = higher. *1 amine or outer side, *2 acyl side, *3 side chain or, on linkers, in order; H or OH if unused. Where a SMILES comes first, the peptide text is derived from it. Bridges are numbered along the chain shown (N, C = ends). [ ]: non-standard residue; d: D form. The star is where a group is joined. X36 = O=C(C(CCCCNO[*:3])N[*:1])[*:2]; Fmoc = O=C(OCC1c2ccccc2-c2ccccc21)*

Tests used:
Experiment in all cases: NCI anticancer screen, dose series, 48 h
[1] = system: DU-145
[2] = system: K562
[3] = system: A498
[4] = system: MCF7
[5] = system: PC-3
[6] = system: OVCAR-3
[7] = system: HOP-62
[8] = system: NCI-H23
[9] = system: IGROV-1
[10] = system: EKVX
[11] = system: UO-31
[12] = system: NCI-H226
[13] = system: A549
[14] = system: NCI-H460
[15] = system: SN12C
[16] = system: UACC-62
[17] = system: HT-29
[18] = system: TK-10
[19] = system: NCI-H522

Structure (SMILES)	GI50 [1]	GI50 [2]	GI50 [3]	GI50 [4]	GI50 [5]	GI50 [6]	GI50 [7]	GI50 [8]	GI50 [9]	GI50 [10]	GI50 [11]	GI50 [12]	GI50 [13]	GI50 [14]	GI50 [15]	GI50 [16]	GI50 [17]	GI50 [18]	GI50 [19]
COC(=O)[C@]12CSC[C@H]1C[C@H](c1cccc3ccccc13)N2	27.8 µM (inactive)	35.1 µM (inactive)	> 100 µM (inactive)	57.7 µM (inactive)	> 100 µM (inactive)	> 100 µM (inactive)	> 100 µM (inactive)	91.2 µM (inactive)	43.1 µM (inactive)	> 100 µM (inactive)	> 100 µM (inactive)	96.2 µM (inactive)	93.3 µM (inactive)	44.3 µM (inactive)	> 100 µM (inactive)	> 100 µM (inactive)	–	–	–
Cc1occc1C(=S)Nc1ccc(Cl)c(C(=O)OCC(C)C)c1	18.3 µM (inactive)	12.1 µM (inactive)	15.9 µM (inactive)	14.6 µM (inactive)	16.1 µM (inactive)	22.4 µM (inactive)	–	17.1 µM (inactive)	18.1 µM (inactive)	15.6 µM (inactive)	17.7 µM (inactive)	15.3 µM (inactive)	20.3 µM (inactive)	22.3 µM (inactive)	16.8 µM (inactive)	12.6 µM (inactive)	13.2 µM (inactive)	17.3 µM (inactive)	14.1 µM (inactive)
O=[N+]([O-])c1ccc(-c2nc(/C=N/N3CCCCC3)cs2)o1	> 100 µM (inactive)	57.5 µM (inactive)	–	38.6 µM (inactive)	> 100 µM (inactive)	26.3 µM (inactive)	53 µM (inactive)	29.2 µM (inactive)	50.8 µM (inactive)	> 100 µM (inactive)	> 100 µM (inactive)	> 100 µM (inactive)	40 µM (inactive)	49.2 µM (inactive)	16.2 µM (inactive)	31.9 µM (inactive)	25.9 µM (inactive)	> 100 µM (inactive)	45.2 µM (inactive)
CCCN1C(=O)CC(C)N(Cc2ccccc2Cl)C1=S (centres undefined)	26.4 µM (inactive)	–	14.2 µM (inactive)	26.5 µM (inactive)	22.8 µM (inactive)	26.1 µM (inactive)	35.4 µM (inactive)	23.5 µM (inactive)	33.4 µM (inactive)	27.9 µM (inactive)	–	–	35.3 µM (inactive)	31 µM (inactive)	30.6 µM (inactive)	19.1 µM (inactive)	37.9 µM (inactive)	25 µM (inactive)	21.1 µM (inactive)
Cc1cc(O)c2c(c1)C(C1OC(CO)C(O)C(O)C1O)c1cc(O)cc(O)c1C2=O (centres undefined)	> 100 µM (inactive)	> 100 µM (inactive)	> 100 µM (inactive)	> 100 µM (inactive)	> 100 µM (inactive)	> 100 µM (inactive)	> 100 µM (inactive)	> 100 µM (inactive)	> 100 µM (inactive)	> 100 µM (inactive)	> 100 µM (inactive)	> 100 µM (inactive)	> 100 µM (inactive)	> 100 µM (inactive)	> 100 µM (inactive)	> 100 µM (inactive)	> 100 µM (inactive)	> 100 µM (inactive)	–
CSC1=N/C(=C\c2ccccc2)C(=O)N1CN1CCOCC1	96.2 µM (inactive)	41.9 µM (inactive)	> 100 µM (inactive)	28.3 µM (inactive)	68.9 µM (inactive)	> 100 µM (inactive)	> 100 µM (inactive)	> 100 µM (inactive)	52.7 µM (inactive)	50.6 µM (inactive)	38.3 µM (inactive)	41.6 µM (inactive)	> 100 µM (inactive)	–	> 100 µM (inactive)	34 µM (inactive)	30.8 µM (inactive)	> 100 µM (inactive)	51.8 µM (inactive)
O=C(/C=N/O)Nc1cc(Cl)c(Cl)cc1Cl	31.9 µM (inactive)	25.6 µM (inactive)	16.6 µM (inactive)	22.6 µM (inactive)	33.2 µM (inactive)	24.4 µM (inactive)	31.6 µM (inactive)	29.6 µM (inactive)	20.7 µM (inactive)	23.2 µM (inactive)	41.9 µM (inactive)	–	34.5 µM (inactive)	28.4 µM (inactive)	23.9 µM (inactive)	25.9 µM (inactive)	36.8 µM (inactive)	30.4 µM (inactive)	24.9 µM (inactive)
Cc1ccc(O)c(C(=O)/C=C/c2ccccc2)c1	> 100 µM (inactive)	> 100 µM (inactive)	–	> 100 µM (inactive)	> 100 µM (inactive)	> 100 µM (inactive)	> 100 µM (inactive)	> 100 µM (inactive)	> 100 µM (inactive)	> 100 µM (inactive)	> 100 µM (inactive)	> 100 µM (inactive)	> 100 µM (inactive)	> 100 µM (inactive)	> 100 µM (inactive)	> 100 µM (inactive)	> 100 µM (inactive)	> 100 µM (inactive)	5.81 µM (inactive)
NC(=O)CNC(=O)C1CCCN1C(=O)C1CCCCNOC(=O)CCC(NC(=O)OCC2c3ccccc3-c3ccccc32)C(=O)NC(Cc2c[nH]c3ccccc23)C(=O)N1 (centres undefined) (Fmoc-EW[X36]PG-NH2; ester 1-3; configuration not given here)	> 100 µM (inactive)	> 100 µM (inactive)	–	47.9 µM (inactive)	> 100 µM (inactive)	> 100 µM (inactive)	> 100 µM (inactive)	> 100 µM (inactive)	> 100 µM (inactive)	> 100 µM (inactive)	24.9 µM (inactive)	> 100 µM (inactive)	> 100 µM (inactive)	> 100 µM (inactive)	> 100 µM (inactive)	> 100 µM (inactive)	> 100 µM (inactive)	> 100 µM (inactive)	> 100 µM (inactive)
c1ccc2c(c1)cc1n2CCc2c-1[nH]c1ccccc21	> 10 µM (inactive)	> 10 µM (inactive)	–	> 10 µM (inactive)	> 10 µM (inactive)	> 10 µM (inactive)	> 10 µM (inactive)	> 10 µM (inactive)	> 10 µM (inactive)	> 10 µM (inactive)	> 10 µM (inactive)	> 10 µM (inactive)	> 10 µM (inactive)	> 10 µM (inactive)	> 10 µM (inactive)	> 10 µM (inactive)	> 10 µM (inactive)	> 10 µM (inactive)	> 10 µM (inactive)
Cc1cccc(N2C(=O)C3c4[nH]c5ccccc5c4C4CCC(C(C)(C)C)CC4C3C2=O)c1C (centres undefined)	> 100 µM (inactive)	> 100 µM (inactive)	> 100 µM (inactive)	> 100 µM (inactive)	> 100 µM (inactive)	> 100 µM (inactive)	> 100 µM (inactive)	> 100 µM (inactive)	> 100 µM (inactive)	29.7 µM (inactive)	> 100 µM (inactive)	> 100 µM (inactive)	47 µM (inactive)	> 100 µM (inactive)	78.7 µM (inactive)	> 100 µM (inactive)	> 100 µM (inactive)	> 100 µM (inactive)	–
COc1ccc(CC[N+]2(C)COc3cc4oc(=O)cc(C)c4cc3C2)cc1OC (centres undefined)	> 100 µM (inactive)	2.45 µM (inactive)	> 100 µM (inactive)	> 100 µM (inactive)	> 100 µM (inactive)	> 100 µM (inactive)	> 100 µM (inactive)	> 100 µM (inactive)	> 100 µM (inactive)	> 100 µM (inactive)	> 100 µM (inactive)	> 100 µM (inactive)	> 100 µM (inactive)	–	> 100 µM (inactive)	> 100 µM (inactive)	> 100 µM (inactive)	> 100 µM (inactive)	> 100 µM (inactive)
CC(C)C1/C(=N/O)CC(c2ccccc2)N(N=O)C1c1ccccc1 (centres undefined)	34 µM (inactive)	35.5 µM (inactive)	–	32.4 µM (inactive)	33.3 µM (inactive)	36.8 µM (inactive)	72.6 µM (inactive)	47.1 µM (inactive)	68.2 µM (inactive)	20.9 µM (inactive)	33.3 µM (inactive)	37.1 µM (inactive)	30.1 µM (inactive)	24.7 µM (inactive)	53.7 µM (inactive)	19.7 µM (inactive)	21.2 µM (inactive)	62.2 µM (inactive)	37 µM (inactive)
O=C(N/N=C(COc1ccccc1)\N=C\c1ccncc1)c1ccncc1	> 100 µM (inactive)	> 100 µM (inactive)	> 100 µM (inactive)	> 100 µM (inactive)	> 100 µM (inactive)	> 100 µM (inactive)	> 100 µM (inactive)	> 100 µM (inactive)	> 100 µM (inactive)	> 100 µM (inactive)	–	–	> 100 µM (inactive)	> 100 µM (inactive)	> 100 µM (inactive)	> 100 µM (inactive)	> 100 µM (inactive)	> 100 µM (inactive)	–
COC(=O)C1Cc2c([nH]c3ccccc23)-c2[nH]c3ccccc3c2CC(NC(C)=O)C(=O)NCC(=O)N1 (centres undefined)	> 100 µM (inactive)	> 100 µM (inactive)	–	> 100 µM (inactive)	> 100 µM (inactive)	> 100 µM (inactive)	> 100 µM (inactive)	> 100 µM (inactive)	0.914 µM (active)	> 100 µM (inactive)	> 100 µM (inactive)	> 100 µM (inactive)	> 100 µM (inactive)	> 100 µM (inactive)	> 100 µM (inactive)	> 100 µM (inactive)	> 100 µM (inactive)	> 100 µM (inactive)	> 100 µM (inactive)
